From publication PMC3634096 (The Korean Journal of Physiology & Pharmacology : …, 2013) come the findings set out here.

The experiment has as its target GABAC receptor ρ1 subunit (homomeric) (Homo sapiens, UniProt P24046). Description: two-electrode voltage clamp in Xenopus oocytes, inhibition of GABA. In kind it is cell-based. Background: In two-electrode clamp one electrode senses voltage and the other passes current.

Sequence of GABAC receptor ρ1 subunit (homomeric) (P24046 22-479): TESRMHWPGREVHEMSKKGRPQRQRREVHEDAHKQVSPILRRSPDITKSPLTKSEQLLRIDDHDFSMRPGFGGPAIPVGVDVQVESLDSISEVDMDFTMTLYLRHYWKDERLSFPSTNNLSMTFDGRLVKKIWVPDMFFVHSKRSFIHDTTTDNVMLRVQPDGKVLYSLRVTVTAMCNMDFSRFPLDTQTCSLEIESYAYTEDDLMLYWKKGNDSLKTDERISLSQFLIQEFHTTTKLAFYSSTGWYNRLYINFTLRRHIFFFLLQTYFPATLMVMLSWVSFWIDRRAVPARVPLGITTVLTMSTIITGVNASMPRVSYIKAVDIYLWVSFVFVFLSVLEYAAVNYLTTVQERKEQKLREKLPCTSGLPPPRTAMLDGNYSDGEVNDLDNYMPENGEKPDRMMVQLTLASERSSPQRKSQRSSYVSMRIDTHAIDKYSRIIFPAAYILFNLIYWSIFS

In turn, `Oc1ccc(/C=C/c2cc(O)cc(O)c2)cc1` [Res, Resveratrol] displayed a half-inhibitory concentration (IC50) of 28.9 ± 2.8 µM.

As usually defined, the IC50 is the concentration that inhibits the measured activity by half. The low end stands for higher potency, the high end for lower potency.
